The subject of series [1] is mice lacking the α1A-AR (AKO). The experiment in a line: Doxorubicin cardiotoxicity in mice lacking the α1A-AR (survival, anatomy, conscious echocardiography). The text has this:
FIGS. 2A-2B. […] On Day 7 the mice underwent echocardiography prior to sacrifice. FIG. 2A. Fractional shortening, a measure of contractile function, with representative M-mode echocardiogram images. […] FIG. 2B. Heart sections from some of these mice (i.e. wild type mice) stained with Masson Trichrome. Fibrosis (weighted average collagen content) was quantified using Aperio ImageScope software.
C57Bl6J mice were from Jackson Laboratory or from our breeding colony. α1A-AR knockout (AKO) mice from Paul C. Simpson were congenic on a C57Bl6J background for at least 10 generations and produced by heterozygous breeding in our animal facility. 8-12 week old males were used in all experiments. Female Sprague-Dawley rats with newborn litters were from Charles River. Animal care and experimental protocols were approved by the UNC IACUC and complied with Guide for the Care and the use of Laboratory Animals (National Research Council Committee for the Update of the Guide for the Care and Use of Laboratory Animals, 2011).
On Day 7, mice underwent echocardiography and were sacrificed by cervical dislocation after an overdose of isoflurane.
Conscious transthoracic echocardiography was performed on loosely restrained mice in the McAllister Heart Institute Animal Models Core using a VisualSonics Vevo 2100 ultrasound system (VisualSonics, Inc., Toronto, Ontario, Canada). Two-dimensional and M-mode echocardiography were performed in the parasternal long-axis view at the level of the papillary muscle. Left ventricular systolic function was assessed by fractional shortening (% FS=[(LVEDD−LVESD)/LVEDD]×100). Reported values represent the average of at least five cardiac cycles per mouse. Sonographers and investigators were blinded to mouse treatment condition during image acquisition and analysis.

Series [2] relates to Complex I, ATP synthase and Cytochrome C oxidase subunit transcripts. The series is described as follows: RNAseq transcript abundance of mitochondrial gene sets in mouse heart. It is filed as in vivo. As for the experimental part:
(§1) FIGS. 3A-3E. […] FIG. 3A. […] FIG. 3B. […] FIG. 3C. […] FIG. 3E.
An omnibus test of transcript abundance across all groups was performed with DESeq2 with groups encoded as categorical variables. One hundred-one genes were identified as significant by meeting the q<0.05 threshold (the set of genes with a 5% false discovery rate). Note, genes of potential interest can be found in Table 4.
(§2) (FIG. 3B). […] (FIG. 3C).
RNAseq was performed at the Carolina Center for Genome Sciences High Throughput Sequencing Facility. Libraries were prepared using an Illumina RNA TruSeq kit for total RNA. Single read sequencing (1×100) was performed on an Illumina HiSeq 2000 system. QC-passed reads were aligned to the mouse reference genome (mm9) using MapSplice.3 The alignment profile was determined by Picard Tools v1.64 (broadinstitute.github.io/picard/). Aligned reads were sorted and indexed using SAMtools and translated to transcriptome coordinates then filtered for indels, large inserts, and zero mapping quality using UBU v1.0 (github.com/mozack/ubu). Transcript abundance estimates for each sample were performed using RSEM, an expectation-maximization algorithm4 using the UCSC knownGene transcript and gene definitions. Raw RSEM read counts for all RNAseq samples were normalized to the overall upper quartile.5 Gene level differential expression testing was performed using the method of Love et al. (2014) implemented in the R package DESeq2. Gene set level tests were performed using the method of Efron and Tibshirani (2006) and gene sets as defined in the molecular signatures database, mSigdb.6 .GEO accession number is pending.

Series [3] has as its system TBARS (lipid peroxidation) in mouse myocardium. The experiment in a line: Thiobarbituric acid reactive substances (TBARS) in mouse heart tissue. Type of series: in vivo.
Source text: as §1, §2

For series [4], the system named is neonatal rat ventricular myocytes (NRVMs). The experiment in a line: Mitochondrial membrane potential (JC-1) in NRVMs. It is filed as cell-based. As for the experimental part:
FIG. 6A-6C. […] FIG. 6A. Mitochondrial membrane potential was assessed using JC-1 and fluorescent intensity was quantified using a plate reader. Red indicates intact mitochondrial membrane potential; green indicates compromised mitochondrial membrane potential (relative). Lysates were blotted for selected regulators of apoptosis and mitochondrial cell death effectors. Representative Western blots and summary findings from 3 independent experiments with at least 2 wells per condition in each experiment are shown.
JC-1 exists as a green fluorescent monomer at low mitochondrial membrane potential and a red fluorescent aggregate at high mitochondrial membrane potential. […] (FIGS. 6A-6C).
Mitochondrial membrane potential: Mitochondrial membrane potential in NRVMs was determined by 5, 5′, 6, 6′-tetrachloro-1, 1′, 3, 3′-tetraethylbenzimidazolylcarbocyanine iodide (JC-1) reduction. Cells were stained with JC-1 (Mitoprobe, Cayman Chemical Company) according to the manufacturer's protocol. In brief, serum-starved NRVMs were treated with DOX or vehicle in the presence or absence of dabuzalgron. […] Cells were washed once with medium then analyzed by plate reader (CLARIOstar, BMG LABTECH, Germany). JC-1 green fluorescence was excited at 488 nm and emission was detected using a 530±40 nm filter. JC-1 red fluorescence was excited at 488 nm and emission was detected using a 613±20 nm filter.

In series [5] the test system is cytochrome c, caspases, PARP. The series is described as follows: Immunoblot for cytochrome c and downstream effectors of apoptosis in NRVMs. It is filed as cell-based, rat. Particulars: NRVM lysates, 4 hours. As for the experimental part:
FIG. 6A-6C. […] FIG. 6A. Mitochondrial membrane potential was assessed using JC-1 and fluorescent intensity was quantified using a plate reader. Red indicates intact mitochondrial membrane potential; green indicates compromised mitochondrial membrane potential (relative). Lysates were blotted for selected regulators of apoptosis and mitochondrial cell death effectors.
Homogenized tissue or cells were lysed in RIPA buffer with protease and phosphatase inhibitor (as above) and the lysate was passed through a Qiashredder. Equal protein abundance was assured with the Bradford assay (tissue lysates) or equal cell number (NRVMs). Samples were run for 2 hours at 140 v on ice on a Novex NuPAGE 4-12% Bis-Tris gel then transferred to a PVDF membrane at 90V for 1 hour on ice. Membranes were blocked in 5% milk at room temperature for 1 hour. We used Cell Signaling kit #9100 (pERK Thr202/Tyr204 1:250, ERK 1:1000, anti-rabbit HRP 1:1000). BID: (Santa Cruz, SC-11423); Cytochrome C: (Santa Cruz, SC-13560); AIF: (Santa Cruz, SC-13116); Caspase 8: (MBL international corporation, JM-3020-100); PARP: (Cell Signaling, #9532); Caspase 3: (Cell Signaling, #9665); Cleaved caspase 3: (Cell Signaling, #9664)

Setting [6] is: α1A-KO mice, Dox 20 mg/kg i.p. + dabuzalgron 20 μg/kg/d gavage 7 days.
Setting [7] is: α1A-KO mice, Dox + 1240 20 μg/kg/d, Day 7 echocardiography.
Where [8] appears, read: DOX + dabuzalgron 10 μg/kg twice daily.
The mark [9] stands for this setting: dabuzalgron in the absence of DOX.

Where “and” joins values, the source holds several entries; their conditions need not be identical. Identical values can stand only once.

Consider `COc1cccc2c1C(=O)c1c(O)c3c(c(O)c1C2=O)C[C@@](O)(C(=O)CO)C[C@@H]3O[C@H]1C[C@H](N)[C@H](O)[C@H](C)O1` [DOX, doxorubicin], for which, in series [1] (mouse, in vivo), the “fractional shortening, DOX-treated AKO vs DOX-treated WT mice” value is “significantly lower”. For the same compound, the 7-day survival in series [1] (α1A-KO mice, Dox 20 mg/kg i.p. + vehicle gavage 7 days) is 38% and 50%. Moreover, the 7-day survival in series [1] (α1A-KO mice, Dox 20 mg/kg i.p. + vehicle gavage 7 days, listed as Dox) is listed as 38%. In addition, in series [2] (DOX 20 mg/kg, Day 7), the “abundance of ATP synthase subunits (17 genes)” value was “decreased” and the “abundance of Complex I subunits (42 genes)” value was “decreased”. Moreover, the TBARS abundance result in series [3] (hearts of mice treated with DOX) is on record as “more abundant”. Moreover, the “mitochondrial membrane potential (JC-1)” value in series [4] (DOX for 4 hours) is reported as “profound loss”. In addition, in series [5] (doxorubicin 2 μM), the “cleavage of caspases and PARP” value is listed as “caused cleavage”; the cytochrome c release entry is recorded as “increased”.
Turning to `Cc1c(OCC2=NCCN2)ccc(Cl)c1NS(C)(=O)=O` [dabuzalgron, N-[6-chloro-3-(4,5-dihydro-1H-imidazol-2-ylmethoxy)-2-methylphenyl]methanesulfonamide], the “effect on reduction in contractile function after DOX” value in series [1] (AKO mice) is listed as “not rescued”. Also, the “effect of dabuzalgron on survival after DOX” value in series [1] (AKO mice, DOX 20 mg/kg i.p., dabuzalgron 10 μg/kg twice daily 7 days) is “unaffected”. Further, in series [1] (setting [6]), the 7-day survival amounted to 50%, the “Body Wt Day 7” value worked out at 26.4 ± 1.2 g, the HW/BW stood at 0.39 ± 0.01 % and the HW/TL is on record as 5.6 ± 0.2 mg/mm. In series [1] (setting [6]), the “Heart Wt” value was found to be 101 ± 5 mg and the “Lung Wt/TL” value turned out to be 5.1 ± 0.2 mg/mm. In addition, in series [1] (setting [7]), the “FS (Fractional Shortening)” value was 42 ± 2% and the “HR (Heart Rate)” value was 618 ± 19 beats per minute. Further, in series [2] (setting [8]), the “expression of ATP synthase subunits after DOX” value is “restored”, the “expression of Complex I subunits after DOX” value was “restored” and the “expression of Cytochrome C oxidase subunits (25 genes) after DOX” value is “increased”. In series [2] (setting [9]), the “ATP synthase subunit abundance” value is “no significant effect”, the “Complex I subunit abundance” value is listed as “increased” and the “Cytochrome C (oxidase subunit) abundance” value is “no significant effect”. Further, in series [3] (co-administration of dabuzalgron with DOX), the TBARS content result is reported as “normalized”. Moreover, in series [4] (DOX for 4 hours with dabuzalgron 10 μM), the “effect on DOX-induced loss of mitochondrial membrane potential” value is given as “partially rescued”. Further, in series [5] (doxorubicin 2 μM with Dabuzalgron 10 μM), the “effect on DOX-induced cytochrome c release and cleavage of caspases and PARP” value was “abrogated”.

Source of the values: patent publication US11213514B2, “Alpha-1-adrenergic receptor agonist therapy” (The Regents of the University of California, priority 2016, dated 2022).
